Results reported in patent US20240109861A1, “SERIES OF PIPERIDINE-SUBSTITUTED BENZOIC ACID COMPOUNDS, AND USE THEREOF” (priority 2020, published 2024).
Marks after values point to notes of the source that are not given here.

Legend:
[1] = molecular target: alternative complement pathway in human serum; assay: Wieslab alternative complement pathway activation inhibition (enzyme activity test); assay type: biochemical; conditions: human serum diluted 1:23, Wieslab alternative pathway kit; read-out: AP MAC IC50
Procedure: The objective of this experiment is to determine the inhibitory activity of the compounds of the present disclosure on the alternative complement pathway in human serum by using the Wieslab® complement system alternative pathway kit.
Serum was diluted with diluent (1:23). Drugs were added to the diluted serum with 8 concentration gradients of up to 10 mM or 50 mM in a 5-fold serial dilution. […] The mixture of compound and serum was added to a 96-well plate (100 μL/well) provided in the kit, and activated at 37° C. for 1 hour. The plate was washed three times with wash buffer. The plate was added with detection antibody (100 μL) provided in the kit and incubated at room temperature for 30 min. The plate was washed three times with wash buffer. The plate was added with substrate (100 μL) and incubated at room temperature for 30 min.

[2] = Pharmacokinetic study in mice; assay type: in vivo, male C57BL/6J mice
Procedure: Experimental objective: To investigate in vivo plasma pharmacokinetics of the compounds of the present disclosure after a single intravenous injection and intragastric administration in male C57BL/6J mice.
Experimental animals: male C57BL/6J mice, 7 to 9 weeks old, weighing 17 to 23 g; supplier: Shanghai Sipple-Bikai Laboratory Animal Co., Ltd.
(§1) Sample collection: 0.03 mL of blood samples were collected by puncture of the saphenous vein in experimental animals at each time point, and the actual blood collection time was recorded. All blood samples were added to 1.5 mL commercial EDTA-K2 anticoagulant tubes (supplied by Jiangsu Kangjian Medical Apparatus Co., Ltd.). After collection, within half an hour, the blood sample was centrifuged at 4° C., 3000 g for 10 min to aspirate the supernatant plasma, which was put in dry ice immediately, and stored in a refrigerator at −80° C. for LC-MS/MS analysis.
Data analysis: Plasma concentrations were processed using the non-compartmental model of WinNonlinTM Version 6.3 (Pharsight, Mountain View, CA) pharmacokinetic software, and pharmacokinetic parameters Cl, T1/2, Cmax, and AUC0-last were calculated using the linear/log trapezoidal method.

[3] = test system: LPS-induced complement activation (plasma C3d protein levels); assay: In vivo PD model of LPS-induced complement activation in mice; design: species or system female C57BL/6J mice; conditions: for inhibition of C3d levels (LPS-induced complement activation): LPS i.p., plasma Western blot, FIG. 1; for inhibitory effect compared with LNP023: LPS-induced complement activation, C3d levels
Procedure: Experimental objective: To investigate the inhibitory effect of the compounds of the present disclosure on complement activation in mice induced by LPS stimulation. Experimental animals: female C57BL/6J mice, 7 to 9 weeks old, weighing 17 to 23 g; supplier: Shanghai Sipple-Bikai Laboratory Animal Co., Ltd.
Experimental procedure: 100 μg of lipopolysaccharide (LPS) in Salmonella typhimurium (Sigma) dissolved in 100 μL of sterile PBS was intraperitoneally injected to induce complement activation in mice. Negative control animals were intraperitoneally injected 100 μL of sterile PBS, and administered alone by tube feeding (PO). Positive control animals were intraperitoneally injected LPS and PO drug vehicles (0.5% (w/v) methyl cellulose and 0.5% (v/v) Tween 80). The time points for administration and plasma collection are as follows:
Sample collection: 0.3 mL of blood samples were collected from the orbital venous plexus. All blood samples were added to 1.5 mL commercial EDTA-K2 anticoagulant tubes (supplied by Jiangsu Kangjian Medical Apparatus Co., Ltd.). After collection, within half an hour, the blood sample was centrifuged at 4° C., 3000 g for 10 min to aspirate the supernatant plasma, which was put in dry ice immediately, and stored in a refrigerator at −80° C. for Western blot analysis of downstream C3d protein levels after complement activation.

[4] = Pharmacokinetic study in rats; assay type: in vivo, male Wistar Han rats
Procedure: Experimental objective: To investigate in vivo plasma pharmacokinetics of the compounds of the present disclosure after a single intravenous injection and intragastric administration in male Wistar Han rats.
Experimental procedure: injection administration (IV): a dose of 1 mpk (vehicle: 30% PEG300/10% Cremphor EL/60% PBS (1×pH 7.4)); oral administration (PO): a dose of 5 mpk or 30 mpk (vehicle: 30% PEG300/10% Cremphor EL/60% PBS (1×pH 7.4))
as §1, with “About 0.3” for “0.03”, “jugular” for “saphenous”, “collection,” for “collection, within half an hour,”, “3200” for “3000”
Data analysis: Plasma concentrations were processed using the non-compartmental model of Phoenix WinNonlin 6.3 pharmacokinetic software, and pharmacokinetic parameters Cl, Cmax, T1/2, and AUC0-last were calculated using the linear/log trapezoidal method.

[5] = test system: Sheep Anti-Rat Fx1A Serum induced Heymann nephritis; assay: In vivo pharmacodynamic model of passive Heymann nephritis in rats; design: species or system male SD rats; conditions: intragastric twice a day for 14 days, FIG. 2
Source text: Experimental objective: To investigate the ability of the compounds of the present disclosure to improve renal function of Sheep Anti-Rat Fx1A Serum induced Heymann nephritis in rats, including the evaluation of reducing proteinuria level and improving renal tissue damage.
Experimental animals: male SD rats, 7 to 10 weeks old, weighing 200 to 300 g; supplier: Beijing Vital River Laboratory Animal Technology Co., Ltd.
Urine was collected from rats on D-2 before administration. […]
Kidney sample collection: All animals were euthanized with CO2 inhalation anesthesia on Day 15, and bilateral kidneys were collected. […] Urine total protein (uTP) in rats was detected without dilution; if exceeding the upper detection limit, it was 10-fold diluted (10 μL of sample+90 μL of saline (0.9% saline)) first (Decrease mode); if still exceeding the upper detection limit after 10-fold dilution, it was 100-fold diluted (2 μL of sample+198 μL of saline (0.9% saline)) (Increase mode). Data were read by the analytical instrument HITACHI LST008 AS (P). • (2) Kidney pathological scoring: The degree of drug damage to rat kidneys (paraffin sections) was analyzed by HE staining. […]

[6] = male, C57BL/6J, mouse, plasma, 1 mg/kg, IV (1 mpk)
[7] = male, C57BL/6J, mouse, plasma, 10 mg/kg, PO (10 mpk)
[8] = male, Wistar Han, rat, plasma, 1 mg/kg, IV (1 mpk)

Structure (SMILES)	IC50 [1] [nM]	Cl ([2]; IV (1 mpk)) [mL/min/kg]	T1/2 ([2]; IV (1 mpk)) [h]	AUC0-last ([2]; PO (10 mpk)) [µM·h]	Cmax ([2]; PO (10 mpk)) [nM]	inhibition of C3d levels (LPS-induced complement activation) [3]	inhibitory effect compared with LNP023 [3]	further results
COc1cc(C)c2[nH]ccc2c1CN1CC[C@H](C2CC2)C[C@H]1c1ccc(C(=O)O)cc1 [Compound 3A]	23.6	12.0	3.9	11.156	4770	significantly inhibit C3d levels	better inhibitory effect than that of LNP023	
COc1cc(C)c2[nH]ccc2c1CN1CC[C@@H](C2CC2)C[C@H]1c1ccc(C(=O)O)cc1 [Compound 3C]	51.7	11.1	3.4	23.3	6320	significantly inhibit C3d levels	better inhibitory effect than that of LNP023	Cl ([4]; IV (1 mpk)): 4.6 mL/min/kg; T1/2 ([4]; IV (1 mpk)): 3.8 h; F % ([4]; PO (5 mpk or 30 mpk)): 62%; Cmax ([4]; PO (5 mpk or 30 mpk), dose-normalized data): 838 nM; AUC0-last ([4]; PO, a dose of 5 mpk, dose-normalized data): 5399^a nM · h
CCO[C@H]1CCN(Cc2c(OC)cc(C)c3[nH]ccc23)[C@H](c2ccc(C(=O)O)cc2)C1 [LNP023, reference compound]						significantly inhibit C3d levels		clearance [2, 6]: 18.4 mL/min/kg; half-life [2, 6]: 1.3 h; AUC(0-t) [2, 7]: 9.3 µM·h; Cmax [2, 7]: 2500 nM; clearance [4, 8]: 6.7 mL/min/kg; half-life [4, 8]: 1.2 h; AUC(0-t) ([4]; male, Wistar Han, rat, plasma, 30 mg/kg, PO, a dose of 30 mpk, dose-normalized data): 2.19 µM·h; bioavailability ([4]; male, Wistar Han, rat, plasma, PO (5 mpk or 30 mpk)): 38%; Cmax ([4]; male, Wistar Han, rat, plasma, PO (5 mpk or 30 mpk), dose-normalized data): 379 nM; urinary protein levels and renal function [5]: significantly inhibit urinary protein levels in rats and improve renal function in rats
